Patent US8999953B2, “Cyclodextrin nanotechnology for ophthalmic drug delivery” (Oculis EHF, priority 2005, dated 2015)
≈ marks a conversion by molar mass, not a printed value. Structures can show the parent of a compound that is named as a salt.

Experiments:
rabbit eye = experiment: Ocular irritation in rabbits following powder administration; type: in vivo; conditions: for Bulbar redness (points) / Discharge (points): drug eye, pure powder, median (range), 0-3 points
Experimental: Timolol maleate powder was administered to one eye of each rabbit and the other eye was used as control. Both pure timolol maleate powder and freeze-dried with PVP-polymer (2.4% of mass) were tested in 1.0 mg (n=3) and 0.1 mg (n=6) doses. Additionally, four rabbits received 0.1 mg of the pure powder 3 times a day for 8 days. Redness of bulbar conjunctivae and the amount of discharge were rated from photographs (0-3 points, randomized and masked evaluation). Slitlamp examination was also performed. Hematoxylin-eosin (H&E) stained sections of eyes were examined with a light microscope following the 8 days experiment.

physchem = conditions: aqueous cyclodextrin solution, 22.5 °C, aqueous with cosolvent or surfactant or cyclodextrin, thermodynamic from solid
[1] = Solubility of drugs in pure aqueous cyclodextrin solutions at room temperature (Experiment 6); conditions: 22-23° C.
[2] = Phase-solubility study of dexamethasone with RMβCD or γCD; type: physicochemical; conditions: for Phase-solubility diagram type: room temperature
Experimental: Phase-solubility study was performed to determine the exact amount of RMβCD needed to solubilize dexamethasone in the eye drop medium. An excess amount of dexamethasone was added to aqueous solution containing from 0 to 25% (w/v) RMβCD, benzalkonium chloride (0.02% w/v), EDTA (0.1% w/v), NaCl (0.00 to 0.72% w/v) and HPMC (0.1%). […] The suspensions were allowed to cool to room temperature (22-23° C.) and equilibrate for 7 days. After equilibrium was attained, the suspension was filtered through a 0.45 μm membrane filter, diluted and analyzed by HPLC. […] The phase-solubility was determined to be of AL-type and thus dexamethasone appears to form 1:1 dexamethasone/RMβCD complex in the aqueous eye drop formulation.
Phase-solubility study was performed to determine the exact amount of γCD needed to solubilize dexamethasone. An excess amount of dexamethasone was added to aqueous solution or suspension containing from 0 to 10% (w/v) γCD. […] The suspensions were allowed to cool to room temperature (22-23° C.) and equilibrate for 7 days. After equilibrium was attained, the suspension was filtered through a 0.45 μm membrane filter, and the filtrate diluted and analyzed by HPLC.

[3] = Eye drop formulation properties (osmolarity, viscosity, dissolved dexamethasone); type: physicochemical; conditions: aqueous eye drop suspension with γ-cyclodextrin, aqueous with cosolvent or surfactant or cyclodextrin, thermodynamic from solid; eye drop formulation of EXPERIMENT 4

solubility (physchem) [µg/mL] | Drug solubility in aqueous randomly methylated β-cyclodextrin ([1]; Randomly methylated β-cyclodextrin 5% w/v) [µg/mL] | Drug solubility in aqueous γ-cyclodextrin ([1]; γ-cyclodextrin 5% w/v) [µg/mL] | Phase-solubility diagram type ([2]; aqueous RMβCD (0-25% w/v) eye drop solutions) | solubility at 7 days ([2]; aqueous γ-cyclodextrin solution/suspension, 22.5 °C, aqueous with cosolvent or surfactant or cyclodextrin, thermodynamic from solid, pure water containing γ-cyclodextrin, at 5% (w/v) γCD concentration, read-out: Maximum dexamethasone solubility) [µg/mL] | Phase-solubility diagram type ([2]; γCD 0 to 10% (w/v) in pure water) | solubility at 7 days [3] [µg/mL] | SMILES | Ocular irritation (rabbit eye; 0.1 mg) | Slitlamp examination, surface photographs and histology, drug versus control eyes (rabbit eye; 0.1 mg 3 times a day for 8 days) | Signs of irritation (rabbit eye; 1.0 mg and 0.1 mg doses) | Bulbar redness (points) (rabbit eye; 0.1 mg × 24 (8 days, n = 4)) | Discharge (points) (rabbit eye; 0.1 mg × 24 (8 days, n = 4)) | Bulbar redness (points) (rabbit eye; 1 hr. after 0.1 mg (n = 6)) | Discharge (points) (rabbit eye; 1 hr. after 0.1 mg (n = 6)) | Bulbar redness (points) (rabbit eye; 1 hr. after 1.0 mg (n = 3)) | Discharge (points) (rabbit eye; 1 hr. after 1.0 mg (n = 3)) | Bulbar redness (points) (rabbit eye; 24 hr. after 0.1 mg (n = 6)) | Discharge (points) (rabbit eye; 24 hr. after 0.1 mg (n = 6)) | Bulbar redness (points) (rabbit eye; 24 hr. after 1.0 mg (n = 3)) | Discharge (points) (rabbit eye; 24 hr. after 1.0 mg (n = 3))
– | – | – | – | – | – | – | CC(C)(C)NC[C@H](O)COc1nsnc1N1CCOCC1 [Timolol maleate powder, Timolol maleate] | negligible ocular irritation | negligible difference between drug and control eyes | No serious or irreversible signs of irritation | 0.8 (0.0-1.5) points | 0.0 (0.0-0.5) points | 1.5 (1.0-2.0) points | 0.0 (0.0-1.5) points | 1.0 (1.0-1.5) points | 1.0 (0.0-2.0) points | 1.0 (0.0-2.0) points | 0.0 (0.0-0.0) points | 1.0 (1.0-1.0) points | 0.3 (0.0-0.8) points
1100 (≈ 2.53 mM) | 2000 | 4400 | – | – | – | – | CC1(C)O[C@@H]2C[C@H]3[C@@H]4CCC5=CC(=O)C=C[C@]5(C)[C@@]4(F)[C@@H](O)C[C@]3(C)[C@]2(C(=O)CO)O1 [Triamcinolone acetonide] | – | – | – | – | – | – | – | – | – | – | – | – | –
3000 (≈ 7.64 mM) | – | – | AL-type | 5300 (≈ 13.5 mM) | BS-type | 700 to 900 (≈ 1.78 to 2.29 mM) | C[C@@H]1C[C@H]2[C@@H]3CCC4=CC(=O)C=C[C@]4(C)[C@@]3(F)[C@@H](O)C[C@]2(C)[C@@]1(O)C(=O)CO [Dexamethasone] | – | – | – | – | – | – | – | – | – | – | – | – | –
